Experimental data published in US20230398130A1, “METHODS AND COMPOSITIONS FOR DIFFERENTIATING STEM CELLS” (Massachusetts Institute of Technology, priority 2020, published 2023).
Counter-ions that a name gives are not always drawn.

System: ISC-enriched organoids
Test: Primary screen, 384-well 2.5-D organoid differentiation (ENR+CD, 6 days, Target Selective Inhibitor Library, vs whole-plate median): ATP (CellTiter-Glo 3D, CTG)
Details: for Z.CTG: standard z score of FC

Row | Compound | Z.CTG (Dose 0.08 uM) | Z.CTG (Dose 0.40 uM) | Z.CTG (Dose 2.00 uM) | Z.CTG (Dose 10.00 uM) | also measured
1 | Cc1cc2c(cc1CC(=O)c1sccc1S(=O)(=O)Nc1onc(C)c1Cl)OCO2 [Sitaxentan sodium] |  |  |  |  | Z.CTG (standard z score) (Dose 0.08 uM, primary screen): 0.226; Z.CTG (standard z score) (Dose 0.40 uM, primary screen): −0.478; Z.CTG (standard z score) (Dose 2.00 uM, primary screen): −0.230; Z.CTG (standard z score) (Dose 10.00 uM, primary screen): −0.240
2 | O=C(NC(Cc1cc(=O)[nH]c2ccccc12)C(=O)O)c1ccc(Cl)cc1 (centres unmarked) [Rebamipide] |  |  |  |  | Z.CTG (standard z score) (Dose 0.08 uM, primary screen): −0.612; Z.CTG (standard z score) (Dose 0.40 uM, primary screen): −1.217; Z.CTG (standard z score) (Dose 2.00 uM, primary screen): −0.484; Z.CTG (standard z score) (Dose 10.00 uM, primary screen): −0.672
3 | COc1ccc(-c2nc3ccc(C4=NNC(=O)CC4C)cc3[nH]2)cc1 (centres unmarked) [Pimobendan] | −0.053 | 0.460 | 0.492 | 0.333 | 
4 | CCNC(=O)[C@H]1O[C@@H](n2cnc3c(N)nc(NCCc4ccc(CCC(=O)O)cc4)nc32)[C@H](O)[C@@H]1O [CGS 21680 HCl] | 0.724 | 1.049 | 0.799 | −3.328 | 
5 | COCCCC/C(=N\OCCN)c1ccc(C(F)(F)F)cc1 [Fluvoxamine maleate] | 0.274 | 0.607 | 0.504 | 0.330 | 
6 | CC[C@H](NC(=O)[C@H](C)NC)C(=O)N1C[C@@H](O)C[C@H]1Cc1c(-c2[nH]c3cc(F)ccc3c2C[C@@H]2C[C@H](O)CN2C(=O)[C@H](CC)NC(=O)[C@H](C)NC)[nH]c2cc(F)ccc12 [Birinapant] |  |  |  |  | Z.CTG (primary screen, dose 0.08 uM): −0.615; Z.CTG (primary screen, dose 0.40 uM): 0.226; Z.CTG (primary screen, dose 2.00 uM): 0.542; Z.CTG (primary screen, dose 10.00 uM): 0.293
7 | CCOc1ccccc1-n1c(C(C)N2CCN(C(=O)COc3ccc(Cl)cc3)CC2)nc2ccccc2c1=O (centres unmarked) [Erastin] | 0.537 | 0.681 | 0.907 | 0.711 | 
8 | O=C(N/N=C/c1ccc(O)c(O)c1)c1cc2ccccc2cc1O [Dynasore] | −0.592 | −0.604 | −0.364 | −0.026 | 
9 | C[C@@H](NCCCc1cccc(C(F)(F)F)c1)c1cccc2ccccc12 [Cinacalcet HCl] | −1.061 | −0.712 | −0.028 | −1.076 | 
10 | COc1ccccc1Oc1c(NS(=O)(=O)c2ccc(C(C)(C)C)cc2)nc(-c2ncccn2)nc1OCCO [Bosentan Hydrate] |  |  |  |  | Z.CTG (primary screen, dose 0.08 uM): 0.487; Z.CTG (primary screen, dose 0.40 uM): 0.495; Z.CTG (primary screen, dose 2.00 uM): 0.288; Z.CTG (primary screen, dose 10.00 uM): 0.204
11 | O=S(=O)(c1ccccc1)N(CC(F)(F)F)c1ccc(C(O)(C(F)(F)F)C(F)(F)F)cc1 [T0901317] |  |  |  |  | Z.CTG (standard z score) (Dose 0.08 uM, primary screen): 0.112; Z.CTG (standard z score) (Dose 0.40 uM, primary screen): 0.426; Z.CTG (standard z score) (Dose 2.00 uM, primary screen): 0.228; Z.CTG (standard z score) (Dose 10.00 uM, primary screen): 0.272
12 | COc1ccc([C@]2(C#N)CC[C@@H](C(=O)O)CC2)cc1OC1CCCC1 [Cilomilast] | −0.799 | −0.807 | −0.562 | −0.458 | 
13 | CCN[C@H]1CN(CCCOC)S(=O)(=O)c2sc(S(N)(=O)=O)cc21 [Brinzolamide] |  |  |  |  | Z.CTG (primary screen, dose 0.08 uM): −0.017; Z.CTG (primary screen, dose 2.00 uM): 0.282
14 | C=C1C(=O)O[C@@H]2/C=C(\C)CC/C=C(\C)CC[C@@H]12 [Costunolide] | −0.070 | 0.288 | 0.120 | 0.019 | 
15 | CCO[C@@H]1OC(=O)C[C@@H]1NC(=O)[C@@H]1CCCN1C(=O)[C@@H](NC(=O)c1ccc(N)c(Cl)c1)C(C)(C)C [VX-765] |  |  |  |  | Z.CTG (standard z score) (dose 0.08 uM): 0.368; Z.CTG (standard z score) (dose 0.40 uM): 0.555; Z.CTG (standard z score) (dose 2.00 uM): 0.393; Z.CTG (standard z score) (dose 10.00 uM): 0.608
16 | CC(C)OC(=O)OCOP(=O)(CO[C@H](C)Cn1cnc2c(N)ncnc21)OCOC(=O)OC(C)C [Tenofovir Disoproxil Fumarate] |  |  |  |  | Z.CTG (standard z score) (dose 0.08 uM): 0.172; Z.CTG (standard z score) (dose 0.40 uM): −0.004; Z.CTG (standard z score) (dose 2.00 uM): −0.378; Z.CTG (standard z score) (dose 10.00 uM): −1.034
17 | CC(=O)O[C@]1(C(C)=O)CC[C@H]2[C@@H]3C=C(Cl)C4=CC(=O)[C@@H]5C[C@@H]5[C@]4(C)[C@H]3CC[C@@]21C [Cyproterone Acetate] | −0.263 | 0.122 | −0.341 | −0.414 | 
18 | O=c1cc(-c2ccc(O)cc2)oc2cc(O)cc(O)c12 [Apigenin] |  |  |  |  | Z.CTG (primary screen, dose 0.08 uM): 0.588; Z.CTG (primary screen, dose 0.40 uM): 0.510; Z.CTG (primary screen, dose 2.00 uM): 0.753; Z.CTG (primary screen, dose 10.00 uM): 0.063
19 | Cc1nc(C(=O)NCC(=O)O)c(O)c2ccc(Oc3ccccc3)cc12 [FG-4592] | 0.782 | 0.679 | 0.692 | 0.568 | 
20 | CC(C)NCC(O)COc1ccc(COCCOC(C)C)cc1 (centres unmarked) [Bisoprolol fumarate] |  |  |  |  | Z.CTG (primary screen, dose 0.08 uM): −0.249; Z.CTG (primary screen, dose 0.40 uM): −0.136; Z.CTG (primary screen, dose 2.00 uM): −0.048; Z.CTG (primary screen, dose 10.00 uM): 0.139
21 | C=C[C@@]1(C)CC(=O)[C@]2(O)[C@@]3(C)[C@@H](O)CCC(C)(C)[C@@H]3[C@H](O)[C@H](OC(C)=O)[C@@]2(C)O1 [Forskolin] | −0.508 | −0.418 | −0.789 | −0.284 | 
22 | CCc1nc(N)nc(N)c1-c1ccc(Cl)cc1 [Pyrimethamine] |  |  |  |  | Z.CTG (standard z score) (Dose 0.08 uM, primary screen): 0.016; Z.CTG (standard z score) (Dose 0.40 uM, primary screen): −0.618; Z.CTG (standard z score) (Dose 2.00 uM, primary screen): −0.994; Z.CTG (standard z score) (Dose 10.00 uM, primary screen): −1.480
